Assay results: patent US4623662A, “Antiatherosclerotic ureas and thioureas” (American Cyanamid Company, priority 1985, dated 1986)
Where two headings read alike, the source gives them in different places.

Columns and labels:
[1] = target: T1, fatty acyl CoA: cholesterol acyl transferase (ACAT) (Rattus norvegicus, UniProt O70536); test: Inhibition of fatty acyl CoA:cholesterol acyl transferase (ACAT), rat adrenal enzyme; type: biochemical; conditions: for IC50: several concentrations
T1 construct: The supernatant, containing the microsomal fraction, served as the source of the cholesterol-esterifying enzyme; from tissue; host or cells: rat adrenals, supernatant of 1,000 x g centrifugation containing the microsomal fraction
T1 sequence (O70536 1-545): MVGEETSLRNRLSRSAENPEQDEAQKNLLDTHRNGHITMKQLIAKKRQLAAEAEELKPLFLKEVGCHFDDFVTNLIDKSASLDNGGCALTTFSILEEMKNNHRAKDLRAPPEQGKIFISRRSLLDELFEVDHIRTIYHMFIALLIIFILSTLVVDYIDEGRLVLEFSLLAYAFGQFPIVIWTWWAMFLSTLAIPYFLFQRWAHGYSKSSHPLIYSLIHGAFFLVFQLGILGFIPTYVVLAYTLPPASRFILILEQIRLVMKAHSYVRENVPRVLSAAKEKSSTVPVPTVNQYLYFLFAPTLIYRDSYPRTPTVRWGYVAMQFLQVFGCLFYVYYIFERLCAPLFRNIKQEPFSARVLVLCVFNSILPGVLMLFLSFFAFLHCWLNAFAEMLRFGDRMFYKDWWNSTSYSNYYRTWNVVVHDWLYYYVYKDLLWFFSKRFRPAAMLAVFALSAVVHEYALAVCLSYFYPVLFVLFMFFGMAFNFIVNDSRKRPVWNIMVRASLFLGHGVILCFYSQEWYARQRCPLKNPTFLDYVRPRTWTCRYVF
Method in brief: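 Read-out was scintillation counting of [14C]cholesteryl ester, isolated by TLC, after 10 min at 37° C with [14C]oleoyl CoA. Beforehand, compound (final 5.2 μg/ml in single-concentration tests) was preincubated 10 min at 37° C with BSA and rat adrenal microsomal supernatant in pH 7.4 phosphate. Results given as percent inhibition versus control or IC50 over several concentrations.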

[2] = system: cholesterol absorption; test: Inhibition of cholesterol absorption in rats fed 1% cholesterol:0.5% cholic acid diet; type: in vivo, male Sprague-Dawley rats; conditions: po, 336 h, rat, dose .03% of the diet, 2 weeks
Method in brief: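 Compound was mixed into the diet (0.001-0.03%) of male Sprague-Dawley rats, 150-170 g, on a 1% cholesterol/0.5% cholic acid regimen for 2 weeks. At sacrifice, serum cholesterol (enzymatic) and liver neutral-sterol cholesterol were measured; values given as percent of compound-free control rats.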

[3] = rat adrenal ACAT, final concentration 5.2 μg/ml, read-out: % Inhibition
[4] = read-out: LS (liver sterol), percentage of control values
[5] = read-out: SS (serum sterol), percentage of control values

Compound O=C(Nc1cc(Cl)c(Cl)cc1Cl)N(Cc1ccc(Cl)cc1)Cc1cccc2ccccc12 [1-(4-Chlorobenzyl)-1-(1-naphthylmethyl)-3-(2,4,5-trichlorophenyl)urea] has an inhibition at 5.2 µg/mL [1, 3] of 86%, a response vs control in vivo at 0.03 % [2, 4] of 97% and a response vs control in vivo at 0.03 % [2, 5] of 84%.

O=C(Nc1c(Cl)cc(Cl)cc1Cl)N(Cc1ccc(Cl)cc1)Cc1cccc2ccccc12 [1-(4-Chlorobenzyl)-1-(1-naphthylmethyl)-3-(2,4,6-trichlorophenyl)urea] was tested, and the inhibition at 5.2 µg/mL [1, 3] was 77%, the response vs control in vivo at 0.03 % [2, 4] was 12% and the response vs control in vivo at 0.03 % [2, 5] was 38%.

O=C(Nc1ccc(Cl)cc1Cl)N(Cc1ccc(Cl)cc1)Cc1cccc2ccccc12 [1-(4-Chlorobenzyl)-1-(1-naphthylmethyl)-3-(2,4-dichlorophenyl)urea] gave an inhibition at 5.2 µg/mL [1, 3] of 92%, a response vs control in vivo at 0.03 % [2, 4] of 48% and a response vs control in vivo at 0.03 % [2, 5] of 50%.

In the case of O=C(Nc1ccc(F)cc1F)N(Cc1ccc(Cl)cc1)Cc1cccc2ccccc12 [1-(4-Chlorobenzyl)-1-(1-naphthylmethyl)-3-(2,4-difluorophenyl)urea], the inhibition at 5.2 µg/mL [1, 3] is reported as 84%, the response vs control in vivo at 0.03 % [2, 4] is reported as 30% and the response vs control in vivo at 0.03 % [2, 5] is reported as 45%.

Work on Cc1cc(Cl)ccc1NC(=O)N(Cc1ccc(Cl)cc1)Cc1cccc2ccccc12 [1-(4-Chlorobenzyl)-1-(1-naphthylmethyl)-3-(2-methyl-4-chlorophenyl)urea] yielded an inhibition at 5.2 µg/mL [1, 3] of 94%, a response vs control in vivo at 0.03 % [2, 4] of 17% and a response vs control in vivo at 0.03 % [2, 5] of 35%.

O=C(Nc1cccc(C(F)(F)F)c1)N(Cc1ccc(Cl)cc1)Cc1cccc2ccccc12 [1-(4-Chlorobenzyl)-1-(1-naphthylmethyl)-3-(3-trifluoromethylphenyl)urea] showed an inhibition at 5.2 µg/mL [1, 3] of 80%, a response vs control in vivo at 0.03 % [2, 4] of 92% and a response vs control in vivo at 0.03 % [2, 5] of 87%.

Cc1ccc(NC(=O)N(Cc2ccc(-c3ccccc3)cc2)Cc2ccc(Cl)c(Cl)c2)c(C)c1 [1-(4-Phenylbenzyl)-1-(3,4-dichlorobenzyl)-3-(2,4-dimethylphenyl)urea] gave an inhibition at 5.2 µg/mL [1, 3] of 36.3%, a response vs control in vivo at 0.03 % [2, 4] of 17% and a response vs control in vivo at 0.03 % [2, 5] of 49%.

Work on CCCCCOc1ccc(CN(Cc2ccc(CCCCC)cc2)C(=O)Nc2cc(Cl)c(Cl)cc2Cl)cc1 [1-(4-n-Pentylbenzyl)-1-(4-n-pentyloxybenzyl)-3-(2,4,5-trichlorophenyl)urea] yielded an inhibition at 5.2 µg/mL [1, 3] of 80%, a response vs control in vivo at 0.03 % [2, 4] of 92% and a response vs control in vivo at 0.03 % [2, 5] of 85%.

CCCCCOc1ccc(CN(Cc2ccc(CCCCC)cc2)C(=O)Nc2c(Cl)cc(Cl)cc2Cl)cc1 [1-(4-n-Pentylbenzyl)-1-(4-n-pentyloxybenzyl)-3-(2,4,6-trichlorophenyl)urea] showed an inhibition at 5.2 µg/mL [1, 3] of 95.5%, a response vs control in vivo at 0.03 % [2, 4] of 76% and a response vs control in vivo at 0.03 % [2, 5] of 100%.

CCCCCOc1ccc(CN(Cc2ccc(CCCCC)cc2)C(=O)Nc2ccc(Cl)cc2Cl)cc1 [1-(4-n-Pentylbenzyl)-1-(4-n-pentyloxybenzyl)-3-(2,4-dichlorophenyl)urea] showed an inhibition at 5.2 µg/mL [1, 3] of 85%, a response vs control in vivo at 0.03 % [2, 4] of 92% and a response vs control in vivo at 0.03 % [2, 5] of 91%.

Work on CCCCCOc1ccc(CN(Cc2ccc(CCCCC)cc2)C(=O)Nc2ccc(F)cc2F)cc1 [1-(4-n-Pentylbenzyl)-1-(4-n-pentyloxybenzyl)-3-(2,4-difluorophenyl)urea] yielded an inhibition at 5.2 µg/mL [1] of 90%, a response vs control in vivo at 0.03 % [2, 4] of 67% and a response vs control in vivo at 0.03 % [2, 5] of 55%.

CCCCc1ccc(CN(CCCCC(C)(C)C)C(=O)Nc2c(Cl)cc(Cl)cc2Cl)cc1 [1-(5,5-Dimethylhexyl)-1-[4-(n-butyl)benzyl]-3-(2,4,6-trichlorophenyl)urea] was tested, and the inhibition at 5.2 µg/mL [1] was 90%, the response vs control in vivo at 0.03 % [2, 4] was 32% and the response vs control in vivo at 0.03 % [2, 5] was 45%.

With CCCCc1ccc(CN(CCCCC(C)(C)C)C(=O)Nc2ccc(F)cc2F)cc1 [1-(5,5-Dimethylhexyl)-1-[4-(n-butyl)benzyl]-3-(2,4-difluorophenyl)urea] the inhibition at 5.2 µg/mL [1] was 90%, the response vs control in vivo at 0.03 % [2, 4] was 58% and the response vs control in vivo at 0.03 % [2, 5] was 59%.

CCCCc1ccc(CN(CCCCC(C)(C)C)C(=O)Nc2ccc(Cl)cc2C)cc1 [1-(5,5-Dimethylhexyl)-1-[4-(n-butyl)benzyl]-3-(4-chloro-2-methylphenyl)urea] was tested, and the inhibition at 5.2 µg/mL [1] was 90%, the response vs control in vivo at 0.03 % [2, 4] was 34% and the response vs control in vivo at 0.03 % [2, 5] was 42%.

In the case of CC(C)CCN(Cc1ccc(C(C)C)cc1)C(=O)Nc1c(F)cc(F)cc1F [1-(Isopentyl)-1-[4-(isopropyl)benzyl]-3-(2,4,6-trifluorophenyl)urea], the IC50 ([1]; rat adrenal ACAT) is reported as 530 nM, the response vs control in vivo at 0.03 % [2, 4] is reported as 35% and the response vs control in vivo at 0.03 % [2, 5] is reported as 31%.

Work on CC(C)CCN(Cc1ccc(C(C)C)cc1)C(=O)Nc1ccc(F)cc1F [1-(Isopentyl)-1-[4-(isopropyl)benzyl]-3-(2,4-difluorophenyl)urea] yielded an IC50 ([1]; rat adrenal ACAT) of 3370 nM, a response vs control in vivo at 0.03 % [2, 4] of 37% and a response vs control in vivo at 0.03 % [2, 5] of 49%.

Cc1cc(Cl)cc(C)c1NC(=O)N(CCC(C)C)Cc1ccc(C(C)C)cc1 [1-(Isopentyl)-1-[4-(isopropyl)benzyl]-3-(4-chloro-2,6-dimethylphenyl)urea] was tested, and the IC50 ([1]; rat adrenal ACAT) was 540 nM, the response vs control in vivo at 0.03 % [2, 4] was 23% and the response vs control in vivo at 0.03 % [2, 5] was 23%.

CCCCCCCOc1ccc(CN(CCCC)C(=O)Nc2c(C)cc(C)cc2C)cc1 [1-(n-Butyl)-1-(4-heptyloxybenzyl)-3-(2,4,6-trimethylphenyl)urea] gave an inhibition at 5.2 µg/mL [1] of 97.3%, a response vs control in vivo at 0.03 % [2, 4] of 31% and a response vs control in vivo at 0.03 % [2, 5] of 66%.

For CCCCN(Cc1ccccc1)C(=O)Nc1ccc(Cl)cc1C [1-(n-Butyl)-1-benzyl-3-(4-chloro-2-methylphenyl)urea], the inhibition at 5.2 µg/mL [1, 3] was 89%, the response vs control in vivo at 0.03 % [2, 4] was 62% and the response vs control in vivo at 0.03 % [2, 5] was 72%.

With CCCCCCCN(CCc1ccccc1)C(=O)Nc1ccc(Cl)cc1Cl [1-(n-Heptyl)-1-(2-phenylethyl)-3-(2,4-dichlorophenyl)urea] the inhibition at 5.2 µg/mL [1, 3] was 91.8%, the response vs control in vivo at 0.03 % [2, 4] was 88% and the response vs control in vivo at 0.03 % [2, 5] was 81%.

CCCCCCCN(CCc1ccccc1)C(=O)Nc1ccc(F)cc1F [1-(n-Heptyl)-1-(2-phenylethyl)-3-(2,4-difluorophenyl)urea] showed an inhibition at 5.2 µg/mL [1, 3] of 94.1%, a response vs control in vivo at 0.03 % [2, 4] of 57% and a response vs control in vivo at 0.03 % [2, 5] of 59%.

CCCCCCCN(CCc1ccccc1)C(=O)Nc1ccc(C)cc1C [1-(n-Heptyl)-1-(2-phenylethyl)-3-(2,4-dimethylphenyl)urea] gave an inhibition at 5.2 µg/mL [1, 3] of 95.7%, a response vs control in vivo at 0.03 % [2, 4] of 36% and a response vs control in vivo at 0.03 % [2, 5] of 57%.

CCCCCCCN(CCc1ccccc1)C(=O)Nc1ccc(Cl)cc1C [1-(n-Heptyl)-1-(2-phenylethyl)-3-(2-methyl-4-chlorophenyl)urea] showed an inhibition at 5.2 µg/mL [1, 3] of 93.8%, a response vs control in vivo at 0.03 % [2, 4] of 49% and a response vs control in vivo at 0.03 % [2, 5] of 66%.

In the case of CCCCCCCN(CCc1ccccc1)C(=O)Nc1ccc(Cl)cc1C(F)(F)F [1-(n-Heptyl)-1-(2-phenylethyl)-3-(2-trifluoromethyl-4-chlorophenyl)urea], the inhibition at 5.2 µg/mL [1] is reported as 88.3%, the response vs control in vivo at 0.03 % [2, 4] is reported as 80% and the response vs control in vivo at 0.03 % [2, 5] is reported as 79%.

With CCCCCCCN(Cc1ccc(OCCCC)cc1)C(=O)Nc1cc(C)c(C)cc1C [1-(n-Heptyl)-1-(4-butyloxybenzyl)-3-(2,4,5-trimethylphenyl)urea] the inhibition at 5.2 µg/mL [1, 3] was 95.6%, the response vs control in vivo at 0.03 % [2, 4] was 17% and the response vs control in vivo at 0.03 % [2, 5] was 32%.

With CCCCCCCN(Cc1ccc(OCCCC)cc1)C(=O)Nc1ccc(C)cc1C [1-(n-Heptyl)-1-(4-butyloxybenzyl)-3-(2,4-dimethylphenyl)urea] the inhibition at 5.2 µg/mL [1, 3] was 94.6%, the response vs control in vivo at 0.03 % [2, 4] was 22% and the response vs control in vivo at 0.03 % [2, 5] was 26%.

With CCCCCCCN(Cc1ccc(OCCCC)cc1)C(=O)Nc1c(Cl)cc(Cl)cc1Cl [1-(n-Heptyl)-1-(4-n-butoxybenzyl)-3-(2,4,6-trichlorophenyl)urea] the inhibition at 5.2 µg/mL [1] was 90%, the response vs control in vivo at 0.03 % [2, 4] was 11% and the response vs control in vivo at 0.03 % [2, 5] was 35%.

Work on CCCCCCCN(Cc1ccc(OCCCC)cc1)C(=O)Nc1ccc(F)cc1F [1-(n-Heptyl)-1-(4-n-butoxybenzyl)-3-(2,4-difluorophenyl)urea] yielded an inhibition at 5.2 µg/mL [1, 3] of 82.7%, a response vs control in vivo at 0.03 % [2, 4] of 25% and a response vs control in vivo at 0.03 % [2, 5] of 63%.

For CCCCCCCN(Cc1ccc(OCCCC)cc1)C(=O)Nc1ccc(Cl)cc1C [1-(n-Heptyl)-1-(4-n-butoxybenzyl)-3-(2-methyl-4-chlorophenyl)urea], the inhibition at 5.2 µg/mL [1, 3] was 91.7%, the response vs control in vivo at 0.03 % [2, 4] was 15% and the response vs control in vivo at 0.03 % [2, 5] was 53%.

CCCCCCCN(Cc1ccc(OCCCC)cc1)C(=O)Nc1cccc(C(F)(F)F)c1 [1-(n-Heptyl)-1-(4-n-butoxybenzyl)-3-(3-trifluoromethylphenyl)urea] showed an inhibition at 5.2 µg/mL [1, 3] of 82.4%, a response vs control in vivo at 0.03 % [2, 4] of 86% and a response vs control in vivo at 0.03 % [2, 5] of 80%.
